Laboratory results: ChEMBL document CHEMBL1133875, “1-(Arylpiperazinylamidoalkyl)-pyrimidones: orally active inhibitors of lipoprotein-associated phospholipase A(2)” (Bioorg Med Chem Lett, 2001)

What was measured:
[1] = target: T1, Platelet-activating factor acetylhydrolase (Homo sapiens, UniProt Q13093); assay: Inhibitory activity against human lipoprotein associated phospholipase A2 (Lp-PLA2)
T1 sequence (Q13093 whole entry): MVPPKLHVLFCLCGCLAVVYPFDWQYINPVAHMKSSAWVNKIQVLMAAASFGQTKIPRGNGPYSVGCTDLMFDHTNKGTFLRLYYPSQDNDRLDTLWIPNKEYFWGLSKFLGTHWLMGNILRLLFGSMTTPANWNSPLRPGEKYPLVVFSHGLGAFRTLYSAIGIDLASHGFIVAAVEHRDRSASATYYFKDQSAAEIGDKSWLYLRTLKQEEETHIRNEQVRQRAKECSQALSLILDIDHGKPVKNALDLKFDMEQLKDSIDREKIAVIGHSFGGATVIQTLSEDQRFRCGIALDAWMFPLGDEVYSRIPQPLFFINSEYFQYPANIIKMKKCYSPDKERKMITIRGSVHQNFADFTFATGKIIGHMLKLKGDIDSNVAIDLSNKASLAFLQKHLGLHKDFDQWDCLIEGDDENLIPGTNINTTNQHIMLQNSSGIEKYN

[2] = species on record: Rattus norvegicus; assay: Intrinsic clearance in rat liver microsomes; type: ADME, Microsome
[3] = species on record: Homo sapiens; assay: Intrinsic clearance in human liver microsomes; type: ADME, Microsome

| SMILES | IC50 [1] | CLi [2] | CLi [3] |
| --- | --- | --- | --- |
| COc1ccc(N2CCN(C(=O)Cn3cc(Cc4cncnc4)c(=O)nc3SCc3ccc(F)cc3)CC2)cc1 | 176 nM | – | – |
| O=C(Cn1cc(Cc2cncnc2)c(=O)nc1SCc1ccc(F)cc1)N1CCN(S(=O)(=O)c2ccccc2)CC1 | 260 nM | – | – |
| Cn1cc(Cc2cn(CC(=O)N3CCN(c4ccc(Cl)cc4)CC3)c(SCc3ccc(F)cc3)nc2=O)cn1 | 44 nM | – | – |
| O=C(Cn1cc(Cc2cnc(N3CCOCC3)nc2)c(=O)nc1SCc1ccc(F)cc1)N1CCN(c2ccc(Cl)cc2)CC1 | 10 nM | 13 mL/min/g | > 50 mL/min/g |
| COc1ncc(Cc2cn(CC(=O)N3CCN(c4ccc(Cl)cc4)CC3)c(SCc3ccc(F)cc3)nc2=O)cn1 | 20 nM | 2 mL/min/g | 3 mL/min/g |
| O=C(Cn1cc(Cc2cnc(C(F)(F)F)nc2)c(=O)nc1SCc1ccc(F)cc1)N1CCN(c2ccc(Cl)cc2)CC1 | 69 nM | – | – |
| O=C(Cn1cc(Cc2cncnc2)c(=O)nc1SCc1ccc(F)cc1)N1CCN(c2ccccc2)CC1 | 120 nM | – | – |
| CC(=O)c1ccc(N2CCN(C(=O)Cn3cc(Cc4cncnc4)c(=O)nc3SCc3ccc(F)cc3)CC2)cc1 | 130 nM | – | – |
| Cn1cc(Cc2cn(CC(=O)N3CCN(c4ccc(Br)cc4)CC3)c(SCc3ccc(F)cc3)nc2=O)cn1 | 51 nM | – | – |
| O=C(Cn1cc(Cc2cncnc2)c(=O)nc1SCc1ccc(F)cc1)N1CCN(c2ccccc2)C(=O)C1 | 6700 nM | – | – |
| CCCCCCCCN1CCN(C(=O)Cn2cc(Cc3cnn(C)c3)c(=O)nc2SCc2ccc(F)cc2)CC1 | 24 nM | – | – |
| CN(C)c1ncc(Cc2cn(CC(=O)N3CCN(c4ccc(Cl)cc4)CC3)c(SCc3ccc(F)cc3)nc2=O)cn1 | 29 nM | – | – |
| CC(C)(C)c1ncc(Cc2cn(CC(=O)N3CCN(c4ccc(Cl)cc4)CC3)c(SCc3ccc(F)cc3)nc2=O)cn1 | 34 nM | – | – |
| Cn1cc(Cc2cn(CCCC(=O)N3CCN(c4ccc(Cl)c(Cl)c4)CC3)c(SCc3ccc(F)cc3)nc2=O)cnc1=O | 9 nM | – | – |
| O=C(Cn1cc(Cc2cncnc2)c(=O)nc1SCc1ccc(F)cc1)N1CCN(C(=O)c2ccccc2)CC1 | 1280 nM | – | – |
| O=C(Cn1cc(Cc2cnc(C3CC3)nc2)c(=O)nc1SCc1ccc(F)cc1)N1CCN(c2ccc(Cl)cc2)CC1 | 21 nM | – | – |
| Cn1cc(Cc2cn(CC(=O)N3CCN(c4ccc(Cl)cc4)CC3)c(SCc3ccc(F)cc3)nc2=O)cnc1=O | 70 nM | 3 mL/min/g | 4 mL/min/g |
| Cn1cc(Cc2cn(CC(=O)N3CCN(c4ccc(Cl)c(Cl)c4)CC3)c(SCc3ccc(F)cc3)nc2=O)cn1 | 12 nM | 6 mL/min/g | 11 mL/min/g |
| Cn1cc(Cc2cn(CC(=O)N3CCN(Cc4ccccc4)C(=O)C3)c(SCc3ccc(F)cc3)nc2=O)cn1 | 530 nM | – | – |
| Cc1ncc(Cc2cn(CC(=O)N3CCN(c4ccc(Cl)cc4)CC3)c(SCc3ccc(F)cc3)nc2=O)cn1 | 18 nM | 3 mL/min/g | 7 mL/min/g |
| COc1ncc(Cc2cn(CCCC(=O)N3CCN(c4ccc(Cl)cc4)CC3)c(SCc3ccc(F)cc3)nc2=O)cn1 | 8 nM | 19 mL/min/g | > 50 mL/min/g |
| O=C(Cn1cc(Cc2cncnc2)c(=O)nc1SCc1ccc(F)cc1)N1CCN(c2ccc(C(F)(F)F)cc2)CC1 | 26 nM | – | – |
| Cn1cc(Cc2cn(CCCC(=O)N3CCN(c4ccc(C(F)(F)F)cc4)CC3)c(SCc3ccc(F)cc3)nc2=O)cn1 | 5 nM | – | – |

The remaining lines, values ahead:

| IC50 [1] | CLi [2] | CLi [3] | SMILES |
| --- | --- | --- | --- |
| 2 nM | – | – | COc1ncc(Cc2cn(CCCC(=O)N3CCN(c4ccc(C(F)(F)F)cc4)CC3)c(SCc3ccc(F)cc3)nc2=O)cn1 |
| 1 nM | – | – | CCCCCCCCCCCCN(C)C(=O)Cn1cc(Cc2cnc(OC)nc2)c(=O)nc1SCc1ccc(F)cc1 |
| 350 nM | – | – | O=C(Cn1cc(Cc2cncnc2)c(=O)nc1SCc1ccc(F)cc1)N1CCN(c2ccccn2)CC1 |
| 9 nM | – | – | O=C(O)Cn1cc(Cc2cn(CCCC(=O)N3CCN(c4ccc(Cl)c(Cl)c4)CC3)c(SCc3ccc(F)cc3)nc2=O)cnc1=O |
| 89 nM | – | – | O=C(O)Cn1cc(Cc2cn(CC(=O)N3CCN(c4ccc(Cl)cc4)CC3)c(SCc3ccc(F)cc3)nc2=O)cnc1=O |
| 97 nM | – | – | O=C(Cn1cc(Cc2cncnc2)c(=O)nc1SCc1ccc(F)cc1)N1CCN(c2ccc(F)cc2)CC1 |
| 0.4 nM | – | – | CCCCCCCC/C=C/CCCCCCCCNC(=O)CCCn1cc(Cc2cncnc2)c(=O)nc1SCc1ccc(F)cc1 |
| 410 nM | – | – | O=C(Cn1cc(Cc2cncnc2)c(=O)nc1SCc1ccc(F)cc1)N1CCN(c2cncnc2)CC1 |
| 2 nM | – | – | COc1ncc(Cc2cn(CCCC(=O)N3CCN(c4ccc(Cl)c(Cl)c4)CC3)c(SCc3ccc(F)cc3)nc2=O)cn1 |
| 66 nM | – | – | O=C(Cn1cc(Cc2cncnc2)c(=O)nc1SCc1ccc(F)cc1)N1CCN(c2cccc(Cl)c2)CC1 |
| 720 nM | – | – | Cn1cc(Cc2cn(CC(=O)N3CCN(C4CCCCC4)CC3)c(SCc3ccc(F)cc3)nc2=O)cn1 |
| 460 nM | – | – | O=C(Cn1cc(Cc2cncnc2)c(=O)nc1SCc1ccc(F)cc1)N1CCNCC1 |
| 3 nM | – | – | Cn1cc(Cc2cn(CCCC(=O)N3CCN(c4ccc(Cl)cc4)CC3)c(SCc3ccc(F)cc3)nc2=O)cn1 |
| – | 2 mL/min/g | 7 mL/min/g | COc1ncc(Cc2cn(CC(=O)N3CCN(c4ccc(Cl)c(Cl)c4)CC3)c(SCc3ccc(F)cc3)nc2=O)cn1 |
| 85 nM | – | – | O=C(Cn1cc(Cc2cncnc2)c(=O)nc1SCc1ccc(F)cc1)N1CCN(Cc2ccccc2)CC1 |
